The source of these data is patent US11084800B2 (Achillion Pharmaceuticals, Inc., priority 2017, dated 2021).

pIC50: −log10 of the molar value.

Sequence of Human Factor D (P00746 26-253): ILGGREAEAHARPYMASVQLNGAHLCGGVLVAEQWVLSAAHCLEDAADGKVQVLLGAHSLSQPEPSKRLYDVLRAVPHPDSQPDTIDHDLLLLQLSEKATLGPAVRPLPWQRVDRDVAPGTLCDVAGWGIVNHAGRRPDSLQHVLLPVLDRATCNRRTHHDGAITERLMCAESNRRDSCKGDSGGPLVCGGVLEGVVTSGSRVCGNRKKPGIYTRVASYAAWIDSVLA

For one assay, the target named is Human Factor D (Homo sapiens (Human), UniProt P00746). Kind of assay: Human Factor D Assay. In kind it is biochemical. Conditions: Factor D inhibition, assay of Example 10; read-out: IC5 (Stars). A digest of the protocol:
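Serum-purified Factor D (80 nM final) preincubated 5 min at room temperature with compound in 50 mM Tris, 1 M NaCl, pH 7.5. Z-L-Lys-SBz and DTNB added at 100 μM each; A405 followed every 30 s for 30 min. IC50 from nonlinear regression of rates versus concentration.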
Consider `CC(=O)OCc1cc(-c2cnc(C)nc2)cc2c(C(C)=O)nn(CC(=O)N3[C@H](C(=O)Nc4nc(Br)ccc4C)C[C@@]4(C)C[C@@H]34)c12` [Compound 529, (3-Acetyl-1-(2-((1R,3S,5R)-3-((6-bromo-3-methylpyridin-2-yl)carbamoyl-5-methyl-2-azabicyclo[3.1.0]hexan-2-yl)-2-oxoethyl)-5-(2-methylpyrimidin-5-yl)-1H-indazol-7-yl)methyl acetate], for which the pIC50 is greater than 6.00. Still for that read-out and setting: next, `CCc1cc(Br)nc(NC(=O)[C@@H]2C[C@@]3(C)C[C@H]3N2C(=O)Cn2nc(C(C)=O)c3cc(-c4cnc(C)nc4)ccc32)c1` [Compound 532, (1R,3S,5R)-2-(2-(3-acetyl-5-(2-methylpyrimidin-5-yl)-1H-indazol-1-yl)acetyl)-N-(6-bromo-4-ethylpyridin-2-yl)-5-methyl-2-azabicyclo[3.1.0]hexane-3-carboxamide]: greater than 6.00.

For the compound `CC(=O)c1nn(CC(=O)N2[C@H](C(=O)NC(CCc3ccccc3)(CCc3ccccc3)C(=O)O)C[C@@]3(C)C[C@@H]23)c2c(C)cc(-c3cnc(C)nc3)cc12` [Compound 533, 2-((1R,3S,5R)-2-(2-(3-acetyl-7-methyl-5-(2-methylpyrimidin-5-yl)-1H-indazol-1-yl)acetyl)-5-methyl-2-azabicyclo[3.1.0]hexane-3-carboxamido)-2-phenethyl-4-phenylbutanoic acid], the pIC50 is less than 5.00. Still for that read-out and setting: for `CC(=O)c1nn(CC(=O)N2[C@H](C(=O)Nc3cc(CC(N)=O)cc(Br)n3)C[C@@]3(C)C[C@@H]23)c2ccc(-c3cnc(C)nc3)cc12` [Compound 534, (1R,3S,5R)-2-(2-(3-acetyl-5-(2-methylpyrimidin-5-yl)-1H-indazol-1-yl)acetyl)-N-(4-(2-amino-2-oxoethyl)-6-bromopyridin-2-yl)-5-methyl-2-azabicyclo[3.1.0]hexane-3-carboxamide] the value was greater than 6.00; for `CC(=O)c1nn(CC(=O)N2[C@H](C(=O)Nc3cc(C(C)C)cc(Br)n3)C[C@@]3(C)C[C@@H]23)c2ccc(-c3cnc(C)nc3)cc12` [Compound 541, (1R,3S,5R)-2-(2-(3-acetyl-5-(2-methylpyrimidin-5-yl)-1H-indazol-1-yl)acetyl)-N-(6-bromo-4-isopropylpyridin-2-yl)-5-methyl-2-azabicyclo[3.1.0]hexane-3-carboxamide], greater than 6.00; for `CC(=O)c1nn(CC(=O)N2[C@H](C(=O)Nc3cc(CC(C)C)cc(Br)n3)C[C@@]3(C)C[C@@H]23)c2ccc(-c3cnc(C)nc3)cc12` [Compound 542, (1R,3S,5R)-2-(2-(3-acetyl-5-(2-methylpyrimidin-5-yl)-1H-indazol-1-yl)acetyl)-N-(6-bromo-4-isobutylpyridin-2-yl)-5-methyl-2-azabicyclo[3.1.0]hexane-3-carboxamide], greater than 6.00. Still for that read-out and setting: next, `CC(=O)c1nn(CC(=O)N2[C@H](C(=O)Nc3cc(C#N)cc(Br)n3)C[C@@]3(C)C[C@@H]23)c2ccc(-c3cnc(C)nc3)cc12` [Compound 543, (1R,3S,5R)-2-(2-(3-acetyl-5-(2-methylpyrimidin-5-yl)-1H-indazol-1-yl)acetyl)-N-(6-bromo-4-cyanopyridin-2-yl)-5-methyl-2-azabicyclo[3.1.0]hexane-3-carboxamide]: greater than 6.00.

With `CC(=O)c1nn(CC(=O)N2[C@H](C(=O)Nc3cc(-c4nnn[nH]4)cc(Br)n3)C[C@@]3(C)C[C@@H]23)c2ccc(-c3cnc(C)nc3)cc12` [Compound 544, (1R,3S,5R)-2-(2-(3-acetyl-5-(2-methylpyrimidin-5-yl)-1H-indazol-1-yl)acetyl)-N-(6-bromo-4-(1H-tetrazol-5-yl)pyridin-2-yl)-5-methyl-2-azabicyclo[3.1.0]hexane-3-carboxamide], the pIC50 was greater than 6.00. The same measure, in the same setting: next, `CC(=O)c1nn(CC(=O)N2[C@H](C(=O)Nc3cc(CCC(C)C)cc(Br)n3)C[C@@]3(C)C[C@@H]23)c2ccc(-c3cnc(C)nc3)cc12` [Compound 545, (1R,3S,5R)-2-(2-(3-acetyl-5-(2-methylpyrimidin-5-yl)-1H-indazol-1-yl)acetyl)-N-(6-bromo-4-isopentylpyridin-2-yl)-5-methyl-2-azabicyclo[3.1.0]hexane-3-carboxamide]: greater than 6.00; `COCc1cc(Br)nc(NC(=O)[C@@H]2C[C@@]3(C)C[C@H]3N2C(=O)Cn2nc(C(C)=O)c3cc(-c4cnc(C)nc4)ccc32)c1` [Compound 546, (1R,3S,5R)-2-(2-(3-acetyl-5-(2-methylpyrimidin-5-yl)-1H-indazol-1-yl)acetyl)-N-(6-bromo-4-(methoxymethyl)pyridin-2-yl)-5-methyl-2-azabicyclo[3.1.0]hexane-3-carboxamide]: greater than 6.00. Still for that read-out and setting: next, `CC(=O)c1nn(CC(=O)N2[C@H](C(=O)Nc3cc(-c4ccccc4)cc(Br)n3)C[C@@]3(C)C[C@@H]23)c2ccc(-c3cnc(C)nc3)cc12` [Compound 547, (1R,3S,5R)-2-(2-(3-acetyl-5-(2-methylpyrimidin-5-yl)-1H-indazol-1-yl)acetyl)-N-(6-bromo-4-phenylpyridin-2-yl)-5-methyl-2-azabicyclo[3.1.0]hexane-3-carboxamide]: greater than 6.00. Same read-out and setting: for `CC(=O)c1nn(CC(=O)N2[C@H](C(=O)Nc3cc(CCc4ccccc4)cc(Br)n3)C[C@@]3(C)C[C@@H]23)c2ccc(-c3cnc(C)nc3)cc12` [Compound 548] the value was greater than 6.00; for `CCCCc1cc(Br)nc(NC(=O)[C@@H]2C[C@@]3(C)C[C@H]3N2C(=O)Cn2nc(C(C)=O)c3cc(-c4cnc(C)nc4)ccc32)c1` [Compound 549, (1R,3S,5R)-2-(2-(3-acetyl-5-(2-methylpyrimidin-5-yl)-1H-indazol-1-yl)acetyl)-N-(6-bromo-4-butylpyridin-2-yl)-5-methyl-2-azabicyclo[3.1.0]hexane-3-carboxamide], greater than 6.00. `CC(=O)c1nn(CC(=O)N2[C@H](C(=O)Nc3cc(C(F)(F)F)cc(Br)n3)C[C@@]3(C)C[C@@H]23)c2ccc(-c3cnc(C)nc3)cc12` [Compound 550, (1R,3S,5R)-2-(2-(3-acetyl-5-(2-methylpyrimidin-5-yl)-1H-indazol-1-yl)acetyl)-N-(6-bromo-4-(trifluoromethyl)pyridin-2-yl)-5-methyl-2-azabicyclo[3.1.0]hexane-3-carboxamide]: the pIC50 is greater than 6.00.

In the case of `CC(=O)c1nn(CC(=O)N2[C@H](C(=O)NCCC(C)(C)C)C[C@@]3(C)C[C@@H]23)c2ccc(-c3cnc(C)nc3)cc12` [Compound 552, (1R,3S,5R)-2-(2-(3-acetyl-5-(2-methylpyrimidin-5-yl)-1H-indazol-1-yl)acetyl)-N-(3,3-dimethylbutyl)-5-methyl-2-azabicyclo[3.1.0]hexane-3-carboxamide], the pIC50 was greater than 6.00. Turning to `CC(=O)c1nn(CC(=O)N2[C@H](C(=O)N[C@@H](C)c3ccccc3)C[C@@]3(C)C[C@@H]23)c2ccc(-c3cnc(C)nc3)cc12` [Compound 553, (1R,3S,5R)-2-(2-(3-acetyl-5-(2-methylpyrimidin-5-yl)-1H-indazol-1-yl)acetyl)-5-methyl-N-((S)-1-phenylethyl)-2-azabicyclo[3.1.0]hexane-3-carboxamide], the pIC50 is greater than 6.00.

Still in this assay, the particulars now being: Table 8; Factor D 80 nM, substrate Z-L-Lys-SBz; read-out: IC50.
Take `CCCCCCCCCNC(=O)[C@@H]1C[C@@]2(C)C[C@H]2N1C(=O)Cn1nc(C(C)=O)c2cc(-c3cnc(C)nc3)cc(C)c21` [Compound 530, (1R,3S,5R)-2-(2-(3-acetyl-7-methyl-5-(2-methylpyrimidin-5-yl)-1H-indazol-1-yl)acetyl)-5-methyl-N-nonyl-2-azabicyclo[3.1.0]hexane-3-carboxamide]: the pIC50 is 5.00 to 6.00.

Take `CCCCCCCCCCNC(=O)[C@@H]1C[C@@]2(C)C[C@H]2N1C(=O)Cn1nc(C(C)=O)c2cc(-c3cnc(C)nc3)cc(C)c21` [Compound 531, (1R,3S,5R)-2-(2-(3-acetyl-7-methyl-5-(2-methylpyrimidin-5-yl)-1H-indazol-1-yl)acetyl)-N-decyl-5-methyl-2-azabicyclo[3.1.0]hexane-3-carboxamide]: the pIC50 is less than 5.00. The same measure, in the same setting: next, `CCCCCCCCCCCCCCCC(=O)NCCCC[C@H](NC(=O)[C@H](CCC(=O)O)NC(=O)[C@H](Cc1ccc(O)cc1)NC(=O)[C@H](CCC(=O)O)NC(C)=O)C(=O)N[C@@H](CCC(=O)O)C(=O)N[C@@H](Cc1ccc(O)cc1)C(=O)N[C@@H](CCC(=O)O)C(=O)NCCOCCOCCOCCOCCOCCOCCOCCOCCOCCOCCOCCOCCOCCOCCOCCOCCOCCOCCOCCOCCOCCOCCOCCOCCC(=O)NC[C@@]12C[C@@H](C(=O)Nc3nc(Br)ccc3C)N(C(=O)Cn3nc(C(C)=O)c4cc(-c5cnc(C)nc5)cc(C)c43)[C@@H]1C2` [Compound 535]: 5.00 to 6.00; `CC(=O)c1nn(CC(=O)N2[C@H](C(=O)NCCCCc3ccccc3)C[C@@]3(C)C[C@@H]23)c2c(C)cc(-c3cnc(C)nc3)cc12` [Compound 538, (1R,3S,5R)-2-(2-(3-acetyl-7-methyl-5-(2-methylpyrimidin-5-yl)-1H-indazol-1-yl)acetyl)-5-methyl-N-(4-phenylbutyl)-2-azabicyclo[3.1.0]hexane-3-carboxamide]: greater than 6.00; `CC(=O)c1nn(CC(=O)N2[C@H](C(=O)NCCCCCc3ccccc3)C[C@@]3(C)C[C@@H]23)c2c(C)cc(-c3cnc(C)nc3)cc12` [Compound 539, (1R,3S,5R)-2-(2-(3-acetyl-7-methyl-5-(2-methylpyrimidin-5-yl)-1H-indazol-1-yl)acetyl)-5-methyl-N-(5-phenylpentyl)-2-azabicyclo[3.1.0]hexane-3-carboxamide]: greater than 6.00. The same measure, in the same setting: next, `CC(=O)c1nn(CC(=O)N2[C@H](C(=O)NCCCCCCc3ccccc3)C[C@@]3(C)C[C@@H]23)c2c(C)cc(-c3cnc(C)nc3)cc12` [Compound 540, (1R,3S,5R)-2-(2-(3-acetyl-7-methyl-5-(2-methylpyrimidin-5-yl)-1H-indazol-1-yl)acetyl)-5-methyl-N-(6-phenylhexyl)-2-azabicyclo[3.1.0]hexane-3-carboxamide]: 5.00 to 6.00.
